Like-named read-outs stand apart in the source and are kept apart here. Residues, ends and D or L forms follow the SMILES beside them.
Legend:
[1] = test system: T. cruzi intracellular amastigotes in Vero cells; assay: In vitro effect on T. cruzi intracellular amastigotes in Vero cells; assay type: cell-based, Trypanosoma cruzi; conditions: one hour period, relative to no peptide
Procedure: Vero cells at 10^5 cells/ml in MEM-FBS were mixed with Trypanosoma Cruzi in the trypomastigote stage at 10^5 cells/ml in the same medium at a 1:1 ratio of Vero cells to trypomastigotes. The mixture of Vero cells and trypomastigotes was cultured at 37° C. in a 5% CO2 atmosphere in microscope slide chambers. At 24 hours, cecropin SB-37 was added to the chambers, except for a set of controls, at a final concentration of 100 μM. […]

[2] = EL-4 cell viability by trypan blue exclusion; assay type: cell-based; conditions: one hour, 95% at 0 μM
Procedure: (§1) EL-4 lymphoma cells were suspended in RPMI 1640 at 5,000,000/ml with 500,000 cells per well. Various concentrations of cecropin SB-37 and Shiva 1 were added and the wells incubated at 37° C. in a 5% CO2 atmosphere for one hour. Viability was determined by microscopic observation for trypan blue exclusion.

[3] = EL-4 cytotoxicity by chromium release; assay type: cell-based; conditions: for cytotoxicity at 100 µM: read-out: Percent Cytotoxicity
Procedure: (§2) The EL-4 cells were then incubated for 30 minutes in the presence of various peptides at different concentrations. Cytotoxicity was taken as a percentage of chromium released (measured in the culture supernatant) relative to the chromium released by EL-4 cells lysed by detergent.
(§3) Similar chromium release data were obtained using the same procedure with a 100 μM concentration of peptide, but with EL-4 cell concentrations of 2×10^6, 10^6, and 5×10^5 cells in 0.5 ml medium.
(§4) The chromium release data was also obtained by using the supernatant from unlabeled EL-4 cells cultured for 30 minutes in the presence of 100 μM peptide as medium for […] EL-4 cultured as described above. The percent cytotoxicity calculated as described above was 20.16 for cecropin SB-37, 19.73 for *cecropin SB-37, 41.96 for Shiva 1, and 106.67 for melittin.

EL-4 cells = assay: EL-4 cytotoxicity by chromium release; assay type: cell-based; conditions: 30 minutes, 10^6 EL-4 cells
Procedure: as §2, §3, §4

[4] = Viability by trypan blue exclusion, SP2 cells; assay type: cell-based, mouse; conditions: 100 μM
Procedure: as §1
(§5) The procedure of Example 5 was repeated with 50 and 200 μM cecropin SB-37 using SP2 mouse lymphoma cells, KG-1 human leukemia cells, Daudi human Burkitt's lymphoma cells, non-adherent normal human lymphocytes and adherent 3T3 […] fibroblasts. Viability was determined by microscopic observation for trypan blue exclusion.
(§6) This procedure was repeated with 100 μM cecropin SB-37 using non-adherent normal human lymphocytes, Daudi human Burkitt's lymphoma cells, KG-1 human leukemia cells, U937 human monocytic leukemia cells, and SP2 murine myeloma cells, and determining viability by the trypan blue exclusion method at 15, 30 and 60 minutes following addition of the peptide.

SP2 mouse lymphoma cells = assay: Viability by trypan blue exclusion, SP2 cells; assay type: cell-based
Procedure: as §1, §5, §6

[5] = Viability by trypan blue exclusion, KG-1 cells; assay type: cell-based, human; conditions: 100 μM
Procedure: as §1, §5, §6

[6] = test system: KG-1 human leukemia cells; assay: Viability by trypan blue exclusion, KG-1 cells; assay type: cell-based
Procedure: as §1, §5, §6

[7] = Viability by trypan blue exclusion, Daudi cells; assay type: cell-based, human; conditions: 100 μM
Procedure: as §1, §5, §6

[8] = test system: Daudi human Burkitt's lymphoma cells; assay: Viability by trypan blue exclusion, Daudi cells; assay type: cell-based
Procedure: as §1, §5, §6

[9] = Viability by trypan blue exclusion, normal lymphocytes; assay type: cell-based, human; conditions: 100 μM
Procedure: as §1, §5, §6

[10] = test system: non-adherent normal human lymphocytes; assay: as above; assay type: cell-based
Procedure: as §1, §5, §6

[11] = test system: adherent 3T3 human fibroblasts; assay: Viability by trypan blue exclusion, 3T3 fibroblasts; assay type: cell-based
[12] = Viability by trypan blue exclusion, U937 cells; assay type: cell-based, human
Procedure: as §1, §6

[13] = test system: Pseudomonas syringae pv. tabaci; assay: Plant pathogen LD50 in cecropin SB-37/lysozyme; assay type: cell-based; conditions: incubation at 30° C.
[14] = test system: Erwinia caratovora subsp. carotova; assay: Plant pathogen LD50 in cecropin SB-37/lysozyme; assay type: cell-based; conditions: incubation at 30° C.
[15] = test system: Xanthomonas campestris pv. campestris; assay: Plant pathogen LD50 in cecropin SB-37/lysozyme; assay type: cell-based; conditions: incubation at 30° C.
[16] = test system: Plasmodium falciparum in human red blood cells; conditions: 24-hour period, relative to untreated infected red blood cells
[17] = S. intermedius 19930 viability in lytic peptide/lysozyme; conditions: Viability (%), lysozyme at ten times

Q: For `CC[C@H](C)[C@H](NC(=O)CNC(=O)[C@H](CC(N)=O)NC(=O)[C@H](CCCNC(=N)N)NC(=O)[C@@H](NC(=O)[C@H](CC(N)=O)NC(=O)[C@H](CCCNC(=N)N)NC(=O)CNC(=O)[C@H](CCSC)NC(=O)[C@H](CCCCN)NC(=O)[C@H](CCC(=O)O)NC(=O)[C@@H](NC(=O)[C@H](CCCCN)NC(=O)[C@H](CCCCN)NC(=O)[C@H](Cc1ccccc1)NC(=O)[C@@H](NC(=O)[C@H](CCCCN)NC(=O)[C@H](Cc1c[nH]c2ccccc12)NC(=O)[C@H](CCCCN)NC(=O)[C@@H]1CCCN1C(=O)[C@@H](N)CCSC)C(C)C)[C@@H](C)CC)[C@@H](C)CC)C(=O)N[C@H](C(=O)N[C@@H](CCCCN)C(=O)N[C@@H](C)C(=O)NCC(=O)N1CCC[C@H]1C(=O)N[C@@H](C)C(=O)N[C@H](C(=O)N[C@@H](C)C(=O)N[C@H](C(=O)N[C@@H](CC(C)C)C(=O)NCC(=O)N[C@@H](CCC(=O)O)C(=O)N[C@@H](C)C(=O)N[C@@H](CCCCN)C(=O)N[C@@H](C)C(=O)N[C@@H](CC(C)C)C(=O)NCC(N)=O)C(C)C)[C@@H](C)CC)C(C)C` [Cecropin SB-37] (H-MPKWKVFKKIEKMGRNIRNGIVKAGPAIAVLGEAKALG-NH2), which “LD50 (concentration for 50% reduction in number of infected Vero cells)” value [1] is on record?
A: about 90 μM

Q: And the viability ([2]; 10 μM)?
A: 90%

Q: What about the viability ([2]; 25 μM) of the same compound?
A: 90%

Q: What about the viability ([2]; 50 μM) of the same compound?
A: 75%

Q: What about the viability ([2]; 100 μM) of the same compound?
A: 20%

Q: What about the cytotoxicity at 100 µM ([3]; 2 × 10^6 cells per 0.5 ml) of the same compound?
A: 93.8%

Q: What about the cytotoxicity at 100 µM ([3]; 5 × 10^5 cells per 0.5 ml) of the same compound?
A: 99.6%

Q: What about the cytotoxicity at 100 µM ([3]; 10^6 cells per 0.5 ml) of the same compound?
A: 89.2%

Q: And the cytotoxicity ([3]; supernatant from unlabeled EL-4 cells cultured 30 minutes with 100 μM peptide used as medium for labeled EL-4, read-out: percent cytotoxicity)?
A: 20.2%

Q: And the “Percent Cytotoxicity (chromium release vs detergent-lysed cells)” value (“Percent Cytotoxicity” for short) (EL-4 cells; 10 μM)?
A: 0.0%

Q: And the “Percent Cytotoxicity” value (EL-4 cells; 25 μM)?
A: 4.49%

Q: And the “Percent Cytotoxicity” value (EL-4 cells; 50 μM)?
A: 6.63%

Q: And the “Percent Cytotoxicity” value (EL-4 cells; 100 μM)?
A: 36.42%

Q: What about the viability at 100 µM ([4]; 15 min.) of the same compound?
A: 100%

Q: What about the viability at 100 µM ([4]; 30 min.) of the same compound?
A: 40%

Q: And the viability at 100 µM ([4]; 60 min.)?
A: 10%

Q: What about the “Survival (percent)” value (SP2 mouse lymphoma cells; 50 μM) of the same compound?
A: 20%

Q: And the “Survival (percent)” value (SP2 mouse lymphoma cells; 100 μM)?
A: 5%

Q: And the viability at 100 µM ([5]; 15 min.)?
A: 50%

Q: What about the viability at 100 µM ([5]; 30 min.) of the same compound?
A: 75%

Q: What about the viability at 100 µM ([5]; 60 min.) of the same compound?
A: 50%

Q: What about the “Survival (percent)” value ([6]; 50 μM) of the same compound?
A: 95%

Q: What about the “Survival (percent)” value ([6]; 100 μM) of the same compound?
A: 0%

Q: What about the viability at 100 µM ([7]; 15 min.) of the same compound?
A: 70%

Q: And the viability at 100 µM ([7]; 30 min.)?
A: 70%

Q: What about the viability at 100 µM ([7]; 60 min.) of the same compound?
A: 65%

Q: And the “Survival (percent)” value ([8]; 50 μM)?
A: 85%

Q: What about the “Survival (percent)” value ([8]; 100 μM) of the same compound?
A: 0%

Q: What about the viability at 100 µM ([9]; 15 min.) of the same compound?
A: 75%

Q: What about the viability at 100 µM ([9]; 30 min.) of the same compound?
A: 80%

Q: And the viability at 100 µM ([9]; 60 min.)?
A: 85%

Q: What about the “Survival (percent)” value ([10]; 50 μM) of the same compound?
A: 100%

Q: What about the “Survival (percent)” value ([10]; 100 μM) of the same compound?
A: 30%

Q: And the “Survival (percent)” value ([11]; 50 μM)?
A: 80%

Q: And the “Survival (percent)” value ([11]; 100 μM)?
A: 80%

Q: And the viability at 100 µM ([12]; 15 min.)?
A: 35%

Q: And the viability at 100 µM ([12]; 30 min.)?
A: 25%

Q: And the viability at 100 µM ([12]; 60 min.)?
A: 15%

Q: What about the LD50 [13] of the same compound?
A: 5.20 µM

Q: And the LD50 [14]?
A: 1.48 µM

Q: And the LD50 [15]?
A: 0.57 µM

Q: What about the viability of the same compound?
A: 0%

Q: What about the viability at 0.01 µM of the same compound?
A: 100%

Q: And the viability at 0.1 µM?
A: 79.4%

Q: What about the viability at 1 µM of the same compound?
A: 48.8%

Q: What about the viability at 5 µM of the same compound?
A: 38.5%

Q: And the viability at 7.5 µM?
A: 0.7%

Q: And the “LD50 (concentration for 50% reduction in 3H-hypoxanthine uptake)” value [16]?
A: about 22.5 μM

Q: And the LD50 (Pseudomonas solanacearum)?
A: 64.0 µM

Q: What about the viability at 0.01 µM ([17]; peptide concentration 0.01 μM) of the same compound?
A: 100%

Q: And the viability at 0.1 µM ([17]; peptide concentration 0.1 μM)?
A: 94.7%

Q: And the viability at 0.5 µM ([17]; peptide concentration 0.5 μM)?
A: 69.4%

Q: What about the viability at 1 µM ([17]; peptide concentration 1.0 μM) of the same compound?
A: 42.5%

Q: And the viability at 5 µM ([17]; peptide concentration 5.0 μM)?
A: 36.1%

Q: What about the viability ([17]; peptide concentration 10. μM) of the same compound?
A: 5.6%

Q: And the viability ([17]; peptide concentration 50. μM)?
A: 0%

— patent publication US6440935B1, “Inhibition of eucaryotic pathogens and neoplasms and stimulation of fibroblasts and lymphocytes with lytic peptides” (priority 1987, dated 2002)
